Source: article PMC6628362, “A New Strategy for Glioblastoma Treatment: In Vitro and In Vivo Preclinical Characterization of Si306, a Pyrazolo[3,4-d]Pyrimidine Dual Src/P-Glycoprotein Inhibitor” (Cancers, 2019)
Entries after “also recorded” stand apart in the source; their conditions may differ.

Tests used:
U87 = experiment: MTT cell growth inhibition, U87; assay type: cell-based, Human; settings: 72 h, n = 3
Description: (§1) Human GBM cell lines U87 and LN-229 were purchased from the American Type Culture Collection, Rockville, MD, USA. U87-TxR cells were selected from U87 cells by continuous exposure to increasing concentrations of PTX [76]. LN-299, U87 and U87-TxR cells were grown in Minimum Essential Medium with 10% fetal bovine serum, 2 mM L-glutamine and 5000 U/mL penicillin, 5 mg/mL streptomycin solution. Cell lines were maintained at 37 °C in a humidified 5% CO2 atmosphere. They were sub-cultured at 72 h intervals using 0.25% trypsin/EDTA and 16,000 cells/cm^2 were seeded into a fresh medium.
(§2) MTT assay was used to assess the viability of U87 and U87-TxR cells (AppliChem GmbH, Taufkirchen, Germany). After reaching the confluence in 25 cm^2 tissue flasks, U87 and U87-TxR cells were trypsinized. Cells were seeded at the optimal density determined in initial experiments: 4000 cell/well into flat-bottomed 96-well tissue culture plates. Following the overnight incubation, cells were treated with Si306, pro-Si306 and dasatinib (1–25 µM) for 72 h. In addition, the combined effects of Si306 and pro-Si306 with PTX were evaluated in MDR GBM cells. To that end, two concentrations of Si306 and pro-Si306 (0.2 μM and 0.5 μM) were combined with increasing concentrations of PTX (0.1–2 μM) in simultaneous treatment. The sensitization of U87-TxR cells to PTX was studied after 72 h. Briefly, MTT was added to each well in a final concentration of 0.2 mg/mL for 4 h to induce the formation of the formazan in cells with intact/viable mitochondria. Then, produced formazan was dissolved in DMSO, and the absorbance was measured at 540 nm on a microplate reader (LKB 5060-006 Micro Plate Reader, Vienna, Austria). IC50 values were calculated by nonlinear regression analysis using GraphPad Prism 6.0 for Windows (GraphPad Software, La Jolla, CA, USA).

U87-TxR = experiment: MTT cell growth inhibition, MDR U87-TxR; assay type: cell-based, Human; settings: 72 h, n = 3
Description: as §1, §2

LN-229 = experiment: MTT cell growth inhibition, LN-229; assay type: cell-based, Human; settings: LN-229, MTT, n = 3
A172 = experiment: Cell viability, A172 (Table S1); assay type: cell-based; settings: Homo sapiens, A 172; A172, 72 h
Description: 1. Cell Growth Inhibition by Dasatinib, Si306 and Pro-Si306
GB cell lines BT138, T98G and A172 were treated with Si306 and pro-Si306 at concentrations ranging from 1 to 100 µM, or with DMSO as a control. Cell viability was evaluated 72 h after treatment for T98G and A172 cell lines and after 24 h for BT-138. In table S1 the IC50 values are reported.
Table S1. Sensitivity of glioblastoma multiforme (GBM) cells to Si306 and pro-Si306 expressed as IC50 […]
Figure S1. Rho 123 accumulation in U87-TxR cells treated with increasing concentrations of TQ (A), Dex-VER (B), Si306 (C) and pro-Si306 (D).
(1 picture or pasted object on this page, not shown here)

U87-TxR cells = experiment: Reversal of paclitaxel resistance, MTT combination treatment; assay type: cell-based, Human; settings: 0.2 µM of the compound, 72 h
Description: as §2

CYP3A4 = molecular target: T1, CYP3A4 (Homo sapiens, UniProt P08684); experiment: CYP3A4 inhibition in human liver microsomes (testosterone 6β-hydroxylation); assay type: in vitro ADME
T1 construct: Incubations were carried out in a mix containing human liver microsomes (1 mg/mL of protein); from tissue; host or cells: human liver microsomes
T1 sequence (P08684 whole entry): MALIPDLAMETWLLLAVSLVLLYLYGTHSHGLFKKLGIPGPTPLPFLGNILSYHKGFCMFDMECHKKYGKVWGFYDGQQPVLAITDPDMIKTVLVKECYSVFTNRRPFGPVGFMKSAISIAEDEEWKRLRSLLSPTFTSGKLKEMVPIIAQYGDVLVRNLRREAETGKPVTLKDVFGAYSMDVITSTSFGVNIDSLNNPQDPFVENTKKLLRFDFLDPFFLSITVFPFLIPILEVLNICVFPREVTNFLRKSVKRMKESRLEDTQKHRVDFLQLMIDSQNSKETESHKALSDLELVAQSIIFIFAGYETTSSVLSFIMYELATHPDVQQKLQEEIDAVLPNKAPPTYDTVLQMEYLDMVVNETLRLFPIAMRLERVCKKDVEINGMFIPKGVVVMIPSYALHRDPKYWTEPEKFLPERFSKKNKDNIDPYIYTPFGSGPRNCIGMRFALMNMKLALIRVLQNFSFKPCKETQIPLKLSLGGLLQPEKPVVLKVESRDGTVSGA
Description: The inhibition of cytochrome P450 3A4 isoform by Si306 and pro-Si306 was measured by determining its activity on the substrate testosterone.
The activity of CYP3A4 was evaluated by measuring the 6β-hydroxylated testosterone formation (CYP3A4-specific reaction). The amount of 6β-hydroxylated metabolite was assessed in the absence and presence of Si306, pro-Si306 and ketoconazole (testosterone concentration of 100 μM in phosphate buffer 0.025 M, pH 7.4). […] Ketoconazole was used as standard selective inhibitor of CYP3A4 isoenzyme. Incubations were carried out in a mix containing human liver microsomes (1 mg/mL of protein) in phosphate buffer 0.025 M, pH 7.4, NADPH (200 μM) previously solubilized in a MgCl2 48 mM solution. The final incubation volume was 0.25 mL. After a 40 min-incubation period at 37 °C, the reaction was stopped by adding 1 mL of acetonitrile in the presence of corticosterone 2 μM as internal standard. The samples were centrifuged for 20 min at 5000 rpm. Concentrations of testosterone and its metabolite 6β-hydroxytestosterone were assessed by the HPLC method with UV detection. Calibration curve for quantitative analysis of 6β-hydroxytestosterone in the samples was obtained using commercial 6β-hydroxytestosterone purchased from Sigma Aldrich. For the statistical analysis, GraphPad InStat 3.0 (GraphPad Software, San Diego, CA, USA) was used.

[1] = molecular target: Human Serum Albumin (HSA) (Homo sapiens, UniProt P02768); experiment: Binding fluorimetric assay, HSA; assay type: in vitro ADME
Chain of Human Serum Albumin (HSA) (P02768 25-609): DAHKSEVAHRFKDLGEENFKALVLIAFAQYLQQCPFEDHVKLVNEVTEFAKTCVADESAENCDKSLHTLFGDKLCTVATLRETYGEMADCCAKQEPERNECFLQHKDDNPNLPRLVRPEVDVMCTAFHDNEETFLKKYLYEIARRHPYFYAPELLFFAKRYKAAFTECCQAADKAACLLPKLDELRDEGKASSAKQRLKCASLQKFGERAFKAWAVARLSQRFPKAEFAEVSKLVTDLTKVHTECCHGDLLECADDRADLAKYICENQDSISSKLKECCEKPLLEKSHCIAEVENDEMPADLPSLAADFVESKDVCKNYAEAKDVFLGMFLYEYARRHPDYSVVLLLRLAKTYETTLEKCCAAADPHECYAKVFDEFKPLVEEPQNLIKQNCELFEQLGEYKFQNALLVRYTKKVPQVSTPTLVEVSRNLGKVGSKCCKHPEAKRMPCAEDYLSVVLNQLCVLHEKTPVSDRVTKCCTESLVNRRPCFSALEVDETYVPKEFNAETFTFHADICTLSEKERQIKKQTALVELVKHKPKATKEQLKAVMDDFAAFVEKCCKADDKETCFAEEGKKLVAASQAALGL
Description: (§3) In order to determine the binding affinity for Si306 and pro-Si306 to HSA (human serum albumin) and AGP (alpha-1-acid glycoprotein), the protein fluorescence has been monitored by spectroscopy. The quantitative analysis was performed using black 96 multiwell plates: in each well, a fixed concentration of HSA or AGP (10 µM in phosphate buffer 1 mM) was added with different amounts of the tested compound (0.1 µM to 500 µM). Plates were gently shacked and after 30 min at room temperature for equilibration, spectra were recorded from 300 to 400 nm, after excitation at 295 nm, by using a Perkin Elmer EnVision Multilabel Reader 2014 spectrofluorimeter. Finally, spectra were acquired with EnVision Manager ver.1.13 software (Walthman, MA, USA). The obtained non fluorescence quenching percentages were plotted against drug concentrations and the relative KD values were calculated using GraphPad software (version 6.0).

[2] = tested on: Alpha-1-acid glycoprotein (AGP); experiment: Binding fluorimetric assay, AGP; assay type: in vitro ADME; settings: 10 µM AGP, fluorescence quenching
Description: as §3

[3] = set-up: method as in PMID 28650650; settings: cited from earlier work
P-gp = P-gp (Homo sapiens, UniProt P08183); experiment: Rho 123 accumulation assay (P-gp inhibition) in U87-TxR cells; settings: 30 min
Chain of P-gp (P08183 whole entry): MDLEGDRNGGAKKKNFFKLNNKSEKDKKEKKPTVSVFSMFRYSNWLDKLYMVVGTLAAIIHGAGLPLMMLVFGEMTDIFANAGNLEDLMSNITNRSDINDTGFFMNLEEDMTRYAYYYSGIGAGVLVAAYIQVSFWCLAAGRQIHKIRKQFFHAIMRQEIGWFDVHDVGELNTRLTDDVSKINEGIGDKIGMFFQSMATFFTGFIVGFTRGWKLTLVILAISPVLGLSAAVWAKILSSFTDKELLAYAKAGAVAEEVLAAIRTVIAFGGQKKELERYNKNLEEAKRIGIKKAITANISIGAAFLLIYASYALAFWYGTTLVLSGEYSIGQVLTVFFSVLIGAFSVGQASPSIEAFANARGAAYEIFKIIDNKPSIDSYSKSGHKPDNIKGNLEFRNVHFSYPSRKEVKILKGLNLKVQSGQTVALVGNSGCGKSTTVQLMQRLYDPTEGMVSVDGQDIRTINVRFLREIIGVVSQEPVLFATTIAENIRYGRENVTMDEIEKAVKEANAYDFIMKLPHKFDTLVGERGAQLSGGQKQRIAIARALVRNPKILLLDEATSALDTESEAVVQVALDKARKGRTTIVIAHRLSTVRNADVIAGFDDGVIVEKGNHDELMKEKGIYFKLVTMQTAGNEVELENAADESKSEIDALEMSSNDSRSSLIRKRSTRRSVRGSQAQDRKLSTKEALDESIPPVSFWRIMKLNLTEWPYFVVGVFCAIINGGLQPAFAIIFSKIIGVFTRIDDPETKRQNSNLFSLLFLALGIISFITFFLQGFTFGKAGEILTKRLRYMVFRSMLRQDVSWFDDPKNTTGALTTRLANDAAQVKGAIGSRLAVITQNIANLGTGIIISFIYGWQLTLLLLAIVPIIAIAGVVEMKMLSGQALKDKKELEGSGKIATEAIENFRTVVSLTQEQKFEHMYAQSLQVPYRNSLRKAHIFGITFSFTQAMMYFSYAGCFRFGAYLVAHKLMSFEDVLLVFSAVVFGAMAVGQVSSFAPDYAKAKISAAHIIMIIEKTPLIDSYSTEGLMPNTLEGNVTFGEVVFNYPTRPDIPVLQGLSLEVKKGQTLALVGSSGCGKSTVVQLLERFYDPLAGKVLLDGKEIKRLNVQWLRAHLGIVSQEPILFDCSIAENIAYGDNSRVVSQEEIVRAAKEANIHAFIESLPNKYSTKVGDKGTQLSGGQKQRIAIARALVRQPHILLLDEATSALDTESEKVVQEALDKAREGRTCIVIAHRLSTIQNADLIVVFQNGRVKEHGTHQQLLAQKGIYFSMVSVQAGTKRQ
Description: At the end of the accumulation period, the cells were pelleted by centrifugation, washed with PBS and placed in cold PBS. The samples were kept on ice in a dark setting until the analysis on CyFlow Space Partec flow-cytometer (Sysmex Partec GmbH, Germany). […] A minimum of 10,000 events was assayed for each sample and the obtained results were analyzed using Summit Dako Software (ver. 4.3, Fort Collins, CO, USA).

[4] = 10 µM HSA, fluorescence quenching

For ClC(Cn1ncc2c(Nc3cccc(Br)c3)nc(SCCN3CCOCC3)nc21)c1ccccc1 (stereo not drawn) [Si306], the IC50 (U87) was 3.08 ± 0.26 µM, the IC50 (U87; Homo sapiens, U-87 MG) was roughly 3 µM and the IC50 (U87-TxR) was 4.78 ± 0.322 µM. It also gave an IC50 (U87-TxR; Homo sapiens, U87-TxR) of 4.8 µM, an IC50 (LN-229; Homo sapiens, LN-229, 72 h) of 8 µM and an IC50 (LN-229; 72 h) of 8.01 ± 0.574 µM. For the same molecule, the IC50 (A172) was 1.69 ± 0.6 µM, the “Relative Reversal of PTX resistance” value (U87-TxR cells) was 1.16 ^ns and the inhibition at 40 min, 50 μM (CYP3A4; pH 7.4, probe testosterone 100 μM (6β-hydroxylation), highest concentration used (1–50 μM range), not significative, read-out: maximum inhibition of CYP3A4 (testosterone 6β-hydroxylation)) was 20%. For the same molecule, the “interaction with CYP3A4” value (CYP3A4; up to 50 μM) was “do not interact with CYP3A4”, the BMAX [1, 4] was 61.05 ± 2.8 and the Kd [1, 4] was 0.35 ± 0.1 µM. For the same molecule, the “affinity for albumin, fold greater than pro-Si306” value ([1]; HSA) was 60 fold, the BMAX [2] was 88.38 ± 1.8 and the Kd at 30 min ([2]; alpha-1-acid glycoprotein (10 µM) in phosphate buffer) was 11.5 ± 1 µM. For the same molecule, the solubility [3] was “very poorly water soluble”, the “P-gp activity (Rho 123 intracellular accumulation)” value (P-gp; 5 µM) was “considerably inhibited P-gp activity; also recorded: significant suppression of P-gp activity” and the IC50 (P-gp; IC50 of P-gp inhibition, Rho 123 accumulation) was 8.5 µM.
